Values joined by “and” are separate entries in the source; they are usually repeats but may differ in a detail not shown here. Identical values can stand only once.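 In this assay, cells in 96-well plates receive the compound at five concentrations for 48 hours. Endpoints are linearly interpolated between the surrounding concentrations. Here, GI50 denotes the concentration required for 50% inhibition of growth. TGI: concentration producing complete growth inhibition.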
Key:
Test in all cases: NCI tumour cell line growth inhibition, 48 h
HCC-2998 colon = test system: HCC-2998 colon
P388/ADR leukemia = test system: P388/ADR leukemia
SNB-78 CNS = test system: SNB-78 CNS
HL-60(TB) leukemia = test system: HL-60(TB) leukemia
HS 578T breast = test system: HS 578T breast
HOP-18 NSCLC = test system: HOP-18 NSCLC
UACC-62 melanoma = test system: UACC-62 melanoma
SN12K1 renal = test system: SN12K1 renal
K-562 leukemia = test system: K-562 leukemia
SK-MEL-28 melanoma = test system: SK-MEL-28 melanoma
DLD-1 colon = test system: DLD-1 colon
A498 renal = test system: A498 renal
MDA-MB-435 = test system: MDA-MB-435
SF-539 CNS = test system: SF-539 CNS
IGROV1 ovarian = test system: IGROV1 ovarian
NCI-H23 lung = test system: NCI-H23 lung
NCI-H522 lung = test system: NCI-H522 lung
RXF 393 renal = test system: RXF 393 renal
OVCAR-5 ovarian = test system: OVCAR-5 ovarian
MCF7 breast = test system: MCF7 breast
M19-MEL melanoma = test system: M19-MEL melanoma
HT29 colon = test system: HT29 colon
XF 498 CNS = test system: XF 498 CNS
T-47D breast = test system: T-47D breast
DMS 273 small cell lung = test system: DMS 273 small cell lung
MDA-MB-231 breast = test system: MDA-MB-231 breast
SF-268 CNS = test system: SF-268 CNS
KM12 colon = test system: KM12 colon
UACC-257 melanoma = test system: UACC-257 melanoma
KM20L2 colon = test system: KM20L2 colon
P388 leukemia = test system: P388 leukemia
MDA-N = test system: MDA-N
COLO 205 colon = test system: COLO 205 colon
SW-620 colon = test system: SW-620 colon
M14 melanoma = test system: M14 melanoma
A549 NSCLC = test system: A549 NSCLC
RPMI-8226 leukemia = test system: RPMI-8226 leukemia
MALME-3M melanoma = test system: MALME-3M melanoma
SK-MEL-5 melanoma = test system: SK-MEL-5 melanoma
EKVX NSCLC = test system: EKVX NSCLC
SNB-19 CNS = test system: SNB-19 CNS
BT-549 breast = test system: BT-549 breast
DMS 114 small cell lung = test system: DMS 114 small cell lung
SR leukemia = test system: SR leukemia
786-0 renal = test system: 786-0 renal
U251 CNS = test system: U251 CNS
CCRF-CEM leukemia = test system: CCRF-CEM leukemia
NCI-H460 lung = test system: NCI-H460 lung
HCT-116 colon = test system: HCT-116 colon
HCT-15 colon = test system: HCT-15 colon
HOP-92 NSCLC = test system: HOP-92 NSCLC
SN12C renal = test system: SN12C renal
UO-31 renal = test system: UO-31 renal
HOP-62 NSCLC = test system: HOP-62 NSCLC
OVCAR-3 ovarian = test system: OVCAR-3 ovarian
SK-MEL-2 melanoma = test system: SK-MEL-2 melanoma
MOLT-4 leukemia = test system: MOLT-4 leukemia
LXFL 529 NSCLC = test system: LXFL 529 NSCLC
CAKI-1 renal = test system: CAKI-1 renal
SK-OV-3 ovarian = test system: SK-OV-3 ovarian
SF-295 CNS = test system: SF-295 CNS
ACHN renal = test system: ACHN renal
OVCAR-4 ovarian = test system: OVCAR-4 ovarian
TK-10 renal = test system: TK-10 renal
OVCAR-8 ovarian = test system: OVCAR-8 ovarian
SNB-75 CNS = test system: SNB-75 CNS
RXF-631 renal = test system: RXF-631 renal
NCI-H226 lung = test system: NCI-H226 lung
LOX IMVI melanoma = test system: LOX IMVI melanoma

For `CN1N=C(N)c2cn(C3OC(COP(=O)(O)O)C(O)C3O)c3ncnc1c23` (stereo unspecified), the TGI (HCC-2998 colon) was 500 µM and 1650 µM and > 4830 µM, the TGI (P388/ADR leukemia) was 2.94 µM and the TGI (SNB-78 CNS) was 2910 µM. For the same compound, the TGI (HL-60(TB) leukemia) was 114 µM and 123 µM and 116 µM, the TGI (HS 578T breast) was 232 µM and 341 µM and 144 µM and the TGI (HOP-18 NSCLC) was 333 µM. For the same compound, the GI50 (UACC-62 melanoma) was 22.6 µM and 96.1 µM, the TGI (UACC-62 melanoma) was 290 µM and 1650 µM and 1880 µM and the TGI (SN12K1 renal) was over 5000 µM. For the same compound, the TGI (K-562 leukemia) was 500 µM and > 1650 µM and > 5000 µM, the GI50 (SK-MEL-28 melanoma) was 118 µM and 312 µM and the TGI (SK-MEL-28 melanoma) was 500 µM and 1650 µM and 2420 µM. The TGI (DLD-1 colon) was 617 µM, the GI50 (A498 renal) was 68.5 µM and 40.6 µM and the TGI (A498 renal) was 391 µM and 1650 µM and 713 µM. The TGI (MDA-MB-435) was 363 µM and 671 µM, the TGI (SF-539 CNS) was 162 µM and 807 µM and 208 µM and the TGI (IGROV1 ovarian) was 500 µM and 1650 µM and 918 µM. For the same compound, the TGI (NCI-H23 lung) was 500 µM and 1650 µM and 4180 µM, the TGI (NCI-H522 lung) was 500 µM and > 1650 µM and > 5000 µM and the GI50 (RXF 393 renal) was 41.9 µM. The TGI (RXF 393 renal) was 236 µM and 462 µM and 460 µM, the TGI (OVCAR-5 ovarian) was 207 µM and 1650 µM and 475 µM and the TGI (MCF7 breast) was 500 µM and 1650 µM and 3650 µM. For the same compound, the TGI (M19-MEL melanoma) was over 4220 µM, the TGI (HT29 colon) was 500 µM and 1650 µM and > 4630 µM and the TGI (XF 498 CNS) was 44.9 µM. The TGI (T-47D breast) was 327 µM and 1650 µM and 269 µM, the TGI (DMS 273 small cell lung) was over 5000 µM and the TGI (MDA-MB-231 breast) was 163 µM and 259 µM. For the same compound, the TGI (SF-268 CNS) was 500 µM and 1650 µM and > 4850 µM, the TGI (KM12 colon) was 500 µM and > 1650 µM and > 5000 µM and the TGI (UACC-257 melanoma) was 500 µM and 1650 µM and 4660 µM. The TGI (KM20L2 colon) was over 4370 µM, the TGI (P388 leukemia) was 7.87 µM and the GI50 (MDA-N) was 25.2 µM. The TGI (MDA-N) was 390 µM and > 1530 µM, the TGI (COLO 205 colon) was 499 µM and > 1650 µM and 2170 µM and the TGI (SW-620 colon) was 500 µM and > 1650 µM and > 4130 µM. The TGI (M14 melanoma) was 500 µM and 1650 µM and 1670 µM, the TGI (A549 NSCLC) was 500 µM and 1650 µM and > 4780 µM and the GI50 (RPMI-8226 leukemia) was 143 µM. The TGI (RPMI-8226 leukemia) was 500 µM and > 4750 µM, the TGI (MALME-3M melanoma) was 305 µM and 1650 µM and 2090 µM and the TGI (SK-MEL-5 melanoma) was 500 µM and > 1650 µM and > 4390 µM. For the same compound, the TGI (EKVX NSCLC) was 500 µM and 1650 µM and 360 µM, the TGI (SNB-19 CNS) was 455 µM and 1650 µM and 3170 µM and the GI50 (BT-549 breast) was 20.1 µM and 4.86 µM. The TGI (BT-549 breast) was 135 µM and 626 µM and 114 µM, the TGI (DMS 114 small cell lung) was over 4300 µM and the TGI (SR leukemia) was 500 µM and > 1650 µM and > 5000 µM. The TGI (786-0 renal) was 500 µM and 1650 µM and > 3510 µM, the TGI (U251 CNS) was 500 µM and 1650 µM and > 5000 µM and the TGI (CCRF-CEM leukemia) was 500 µM and 1650 µM and > 5000 µM. The TGI (NCI-H460 lung) was 500 µM and > 1650 µM and 3460 µM, the TGI (HCT-116 colon) was 468 µM and 1650 µM and > 4540 µM and the TGI (HCT-15 colon) was 500 µM and 1650 µM and 2630 µM.

Compound `CCOC(=O)Cn1c(=O)[nH]c(=O)c2c1ncn2Cc1ccccc1` has a TGI (HCC-2998 colon) of over 100 µM, a TGI (SNB-78 CNS) of over 100 µM and a TGI (HL-60(TB) leukemia) of over 100 µM. For the same compound, the TGI (HOP-92 NSCLC) was over 100 µM, the TGI (SN12C renal) was over 100 µM and the TGI (HOP-18 NSCLC) was over 100 µM. For the same compound, the TGI (UACC-62 melanoma) was over 100 µM, the TGI (K-562 leukemia) was over 100 µM and the TGI (SK-MEL-28 melanoma) was over 100 µM. The TGI (DLD-1 colon) was over 100 µM, the TGI (A498 renal) was over 100 µM and the TGI (UO-31 renal) was over 100 µM. For the same compound, the TGI (SF-539 CNS) was over 100 µM, the TGI (IGROV1 ovarian) was over 100 µM and the TGI (NCI-H23 lung) was over 100 µM. It also gave a TGI (NCI-H522 lung) of over 100 µM, a TGI (RXF 393 renal) of over 100 µM and a TGI (HOP-62 NSCLC) of over 100 µM. For the same compound, the TGI (OVCAR-5 ovarian) was over 100 µM, the TGI (M19-MEL melanoma) was over 100 µM and the TGI (HT29 colon) was over 100 µM. For the same compound, the TGI (XF 498 CNS) was over 100 µM, the TGI (DMS 273 small cell lung) was over 100 µM and the TGI (OVCAR-3 ovarian) was over 100 µM. It also gave a TGI (SF-268 CNS) of over 100 µM, a TGI (KM12 colon) of over 100 µM and a TGI (SK-MEL-2 melanoma) of over 100 µM. It also gave a TGI (MOLT-4 leukemia) of over 100 µM, a TGI (LXFL 529 NSCLC) of over 100 µM and a TGI (UACC-257 melanoma) of over 100 µM. For the same compound, the TGI (KM20L2 colon) was over 100 µM, the TGI (CAKI-1 renal) was over 100 µM and the TGI (SK-OV-3 ovarian) was over 100 µM. It also gave a TGI (COLO 205 colon) of over 100 µM, a TGI (SW-620 colon) of over 100 µM and a TGI (SF-295 CNS) of over 100 µM. The TGI (ACHN renal) was over 100 µM, the TGI (M14 melanoma) was over 100 µM and the TGI (A549 NSCLC) was over 100 µM. For the same compound, the TGI (OVCAR-4 ovarian) was over 100 µM, the TGI (TK-10 renal) was over 100 µM and the TGI (RPMI-8226 leukemia) was over 100 µM. For the same compound, the TGI (OVCAR-8 ovarian) was over 100 µM, the TGI (SNB-75 CNS) was over 100 µM and the TGI (MALME-3M melanoma) was over 100 µM. It also gave a TGI (SK-MEL-5 melanoma) of over 100 µM, a TGI (RXF-631 renal) of over 100 µM and a TGI (EKVX NSCLC) of over 100 µM. For the same compound, the TGI (SNB-19 CNS) was over 100 µM, the TGI (DMS 114 small cell lung) was over 100 µM and the TGI (SR leukemia) was over 100 µM. It also gave a TGI (786-0 renal) of over 100 µM, a TGI (U251 CNS) of over 100 µM and a TGI (NCI-H226 lung) of over 100 µM. The TGI (CCRF-CEM leukemia) was over 100 µM, the TGI (NCI-H460 lung) was over 100 µM and the TGI (LOX IMVI melanoma) was over 100 µM. For the same compound, the TGI (HCT-116 colon) was over 100 µM and the TGI (HCT-15 colon) was over 100 µM.

Source: PubChem BioAssay (NCI)
